Source: ChEMBL document CHEMBL4038287, “Design, synthesis, and in vitro evaluation of novel antifungal triazoles” (2017)
In brackets after ≈: the same amount, converted by molar mass.

Key:
Type in all cases: functional
[1] = system: Nakaseomyces glabratus; test: Antifungal activity against Candida glabrata isolate 537 by micro-broth dilution method
[2] = system: Nannizzia gypsea; test: Antifungal activity against Microsporum gypseum isolate cmccftla by micro-broth dilution method
[3] = system: Trichophyton rubrum; test: Antifungal activity against Trichophyton rubrum isolate cmccftla by micro-broth dilution method
[4] = system: Candida albicans; test: Antifungal activity against Candida albicans isolate SC5314 by micro-broth dilution method
[5] = system: Aspergillus fumigatus; test: Antifungal activity against Aspergillus fumigatus isolate 7544 by micro-broth dilution method
[6] = system: Cryptococcus neoformans; test: Antifungal activity against Cryptococcus neoformans isolate 32605 by micro-broth dilution method
[7] = system: Candida albicans; test: Antifungal activity against Candida albicans isolate Y0109 by micro-broth dilution method
[8] = system: Candida parapsilosis; test: Antifungal activity against Candida parapsilosis isolate 22019 by micro-broth dilution method; conditions: Lodderomyces parapsilosis

Row | MIC80 [1] [µg/mL] | MIC80 [2] [µg/mL] | MIC80 [3] [µg/mL] | MIC80 [4] [µg/mL] | MIC80 [5] [µg/mL] | MIC80 [6] [µg/mL] | MIC80 [7] [µg/mL] | MIC80 [8] [µg/mL] | SMILES
1 | 0.25 (≈ 0.527 µM) | 4 (≈ 8.43 µM) | 1 (≈ 2.11 µM) | 0.125 (≈ 0.263 µM) | 8 (≈ 16.9 µM) | 0.25 (≈ 0.527 µM) | 0.125 (≈ 0.263 µM) | 0.125 (≈ 0.263 µM) | C[C@@H](c1cc(-c2ccc(S(C)(=O)=O)cc2)no1)[C@](O)(Cn1cncn1)c1ccc(F)cc1F
2 | 0.0625 (≈ 0.151 µM) | > 8 | 2 (≈ 4.83 µM) | 0.5 (≈ 1.21 µM) | > 8 | 0.0625 (≈ 0.151 µM) | 0.5 (≈ 1.21 µM) | 1 (≈ 2.41 µM) | C[C@@H](c1cc(-c2ccccc2F)no1)[C@](O)(Cn1cncn1)c1cc(F)ccc1F
3 | 0.0156 (≈ 0.0348 µM) | 2 (≈ 4.46 µM) | 0.25 (≈ 0.557 µM) | 0.125 (≈ 0.279 µM) | 8 (≈ 17.8 µM) | 0.0313 (≈ 0.0697 µM) | 0.125 (≈ 0.279 µM) | 0.125 (≈ 0.279 µM) | C[C@@H](c1cc(-c2ccc(Cl)cc2F)no1)[C@](O)(Cn1cncn1)c1ccc(F)cc1F
4 | 0.125 (≈ 0.289 µM) | > 8 | 8 (≈ 18.5 µM) | 1 (≈ 2.31 µM) | > 8 | 0.125 (≈ 0.289 µM) | 0.5 (≈ 1.16 µM) | 1 (≈ 2.31 µM) | C[C@@H](c1cc(-c2cc(F)ccc2F)no1)[C@](O)(Cn1cncn1)c1cc(F)ccc1F
5 | 0.0156 (≈ 0.0361 µM) | 4 (≈ 9.25 µM) | 0.5 (≈ 1.16 µM) | 0.125 (≈ 0.289 µM) | 8 (≈ 18.5 µM) | 0.125 (≈ 0.289 µM) | 0.125 (≈ 0.289 µM) | 0.125 (≈ 0.289 µM) | C[C@@H](c1cc(-c2ccc(F)c(F)c2)no1)[C@](O)(Cn1cncn1)c1ccc(F)cc1F
6 | 0.0625 (≈ 0.139 µM) | 0.5 (≈ 1.11 µM) | 0.0625 (≈ 0.139 µM) | 0.25 (≈ 0.555 µM) | 2 (≈ 4.44 µM) | 0.0625 (≈ 0.139 µM) | 0.125 (≈ 0.278 µM) | 0.125 (≈ 0.278 µM) | C[C@@H](c1cc(-c2c(F)ccc(F)c2F)no1)[C@](O)(Cn1cncn1)c1ccc(F)cc1F
7 | 0.25 (≈ 0.557 µM) | 4 (≈ 8.91 µM) | 0.5 (≈ 1.11 µM) | 0.0313 (≈ 0.0697 µM) | > 8 | 0.25 (≈ 0.557 µM) | 0.0156 (≈ 0.0348 µM) | 0.5 (≈ 1.11 µM) | C[C@@H](c1cc(-c2ccc(Cl)c(F)c2)no1)[C@](O)(Cn1cncn1)c1ccc(F)cc1F
8 | 0.125 (≈ 0.289 µM) | > 8 | 8 (≈ 18.5 µM) | 0.5 (≈ 1.16 µM) | > 8 | 0.125 (≈ 0.289 µM) | 0.5 (≈ 1.16 µM) | 2 (≈ 4.63 µM) | C[C@@H](c1cc(-c2cccc(F)c2F)no1)[C@](O)(Cn1cncn1)c1cc(F)ccc1F
9 | 0.0625 (≈ 0.145 µM) | 1 (≈ 2.31 µM) | 0.125 (≈ 0.289 µM) | 0.0625 (≈ 0.145 µM) | 4 (≈ 9.25 µM) | 0.125 (≈ 0.289 µM) | 0.0625 (≈ 0.145 µM) | 0.125 (≈ 0.289 µM) | C[C@@H](c1cc(-c2cc(F)ccc2F)no1)[C@](O)(Cn1cncn1)c1ccc(F)cc1F
10 | 0.0156 (≈ 0.0361 µM) | > 8 | 1 (≈ 2.31 µM) | 0.125 (≈ 0.289 µM) | > 8 | 0.125 (≈ 0.289 µM) | 0.125 (≈ 0.289 µM) | 0.25 (≈ 0.578 µM) | C[C@@H](c1cc(-c2ccc(F)c(F)c2)no1)[C@](O)(Cn1cncn1)c1cc(F)ccc1F
11 | 0.0625 (≈ 0.145 µM) | 2 (≈ 4.63 µM) | 0.25 (≈ 0.578 µM) | 0.125 (≈ 0.289 µM) | 4 (≈ 9.25 µM) | 0.125 (≈ 0.289 µM) | 0.0625 (≈ 0.145 µM) | 0.25 (≈ 0.578 µM) | C[C@@H](c1cc(-c2cc(F)cc(F)c2)no1)[C@](O)(Cn1cncn1)c1ccc(F)cc1F
12 | 0.0625 (≈ 0.148 µM) | 1 (≈ 2.37 µM) | 0.125 (≈ 0.297 µM) | 0.25 (≈ 0.593 µM) | 8 (≈ 19 µM) | 0.125 (≈ 0.297 µM) | 0.25 (≈ 0.593 µM) | 0.125 (≈ 0.297 µM) | C[C@@H](c1cc(-c2ccc(C#N)cc2)no1)[C@](O)(Cn1cncn1)c1ccc(F)cc1F
13 | 0.0625 (≈ 0.135 µM) | 1 (≈ 2.16 µM) | 0.125 (≈ 0.27 µM) | 0.0625 (≈ 0.135 µM) | 8 (≈ 17.3 µM) | 0.125 (≈ 0.27 µM) | 0.0625 (≈ 0.135 µM) | 0.125 (≈ 0.27 µM) | C[C@@H](c1cc(-c2ccc(OC(F)F)cc2)no1)[C@](O)(Cn1cncn1)c1ccc(F)cc1F
14 | 0.125 (≈ 0.289 µM) | 0.5 (≈ 1.16 µM) | 0.125 (≈ 0.289 µM) | 0.0625 (≈ 0.145 µM) | 2 (≈ 4.63 µM) | 0.125 (≈ 0.289 µM) | 0.0625 (≈ 0.145 µM) | 0.25 (≈ 0.578 µM) | C[C@@H](c1cc(-c2cccc(F)c2F)no1)[C@](O)(Cn1cncn1)c1ccc(F)cc1F
15 | 0.125 (≈ 0.289 µM) | > 8 | 4 (≈ 9.25 µM) | 0.5 (≈ 1.16 µM) | > 8 | 0.0625 (≈ 0.145 µM) | 1 (≈ 2.31 µM) | 1 (≈ 2.31 µM) | C[C@@H](c1cc(-c2c(F)cccc2F)no1)[C@](O)(Cn1cncn1)c1cc(F)ccc1F
16 | 0.0625 (≈ 0.145 µM) | 1 (≈ 2.31 µM) | 0.125 (≈ 0.289 µM) | 0.125 (≈ 0.289 µM) | 2 (≈ 4.63 µM) | 0.125 (≈ 0.289 µM) | 0.0625 (≈ 0.145 µM) | 0.125 (≈ 0.289 µM) | C[C@@H](c1cc(-c2c(F)cccc2F)no1)[C@](O)(Cn1cncn1)c1ccc(F)cc1F
17 | 0.0625 (≈ 0.151 µM) | > 8 | 1 (≈ 2.41 µM) | 0.125 (≈ 0.302 µM) | > 8 | 0.0625 (≈ 0.151 µM) | 0.125 (≈ 0.302 µM) | 0.25 (≈ 0.603 µM) | C[C@@H](c1cc(-c2ccc(F)cc2)no1)[C@](O)(Cn1cncn1)c1cc(F)ccc1F
18 | 0.0313 (≈ 0.0755 µM) | 0.5 (≈ 1.21 µM) | 0.0625 (≈ 0.151 µM) | 0.0313 (≈ 0.0755 µM) | 2 (≈ 4.83 µM) | 0.125 (≈ 0.302 µM) | 0.0625 (≈ 0.151 µM) | 0.125 (≈ 0.302 µM) | C[C@@H](c1cc(-c2ccccc2F)no1)[C@](O)(Cn1cncn1)c1ccc(F)cc1F
19 | 0.0625 (≈ 0.145 µM) | 4 (≈ 9.25 µM) | 1 (≈ 2.31 µM) | 0.25 (≈ 0.578 µM) | > 8 | 0.0625 (≈ 0.145 µM) | 0.125 (≈ 0.289 µM) | 1 (≈ 2.31 µM) | C[C@@H](c1cc(-c2ccc(F)cc2F)no1)[C@](O)(Cn1cncn1)c1cc(F)ccc1F
20 | 0.0313 (≈ 0.0724 µM) | 0.5 (≈ 1.16 µM) | 0.0625 (≈ 0.145 µM) | 0.0625 (≈ 0.145 µM) | 2 (≈ 4.63 µM) | 0.125 (≈ 0.289 µM) | 0.0625 (≈ 0.145 µM) | 0.125 (≈ 0.289 µM) | C[C@@H](c1cc(-c2ccc(F)cc2F)no1)[C@](O)(Cn1cncn1)c1ccc(F)cc1F
21 | 0.0625 (≈ 0.139 µM) | 1 (≈ 2.22 µM) | 0.5 (≈ 1.11 µM) | 0.25 (≈ 0.555 µM) | 2 (≈ 4.44 µM) | 0.0625 (≈ 0.139 µM) | 0.125 (≈ 0.278 µM) | 0.125 (≈ 0.278 µM) | C[C@@H](c1cc(-c2c(F)cc(F)cc2F)no1)[C@](O)(Cn1cncn1)c1ccc(F)cc1F
22 | 0.0625 (≈ 0.13 µM) | 4 (≈ 8.33 µM) | 0.125 (≈ 0.26 µM) | 0.125 (≈ 0.26 µM) | 8 (≈ 16.7 µM) | 0.125 (≈ 0.26 µM) | 0.0313 (≈ 0.0652 µM) | 0.5 (≈ 1.04 µM) | C[C@@H](c1cc(-c2ccc(OC(F)(F)F)cc2)no1)[C@](O)(Cn1cncn1)c1ccc(F)cc1F
23 | 0.0313 (≈ 0.0697 µM) | 8 (≈ 17.8 µM) | 1 (≈ 2.23 µM) | 0.5 (≈ 1.11 µM) | > 8 | 0.125 (≈ 0.279 µM) | 0.25 (≈ 0.557 µM) | 1 (≈ 2.23 µM) | C[C@@H](c1cc(-c2ccc(Cl)cc2F)no1)[C@](O)(Cn1cncn1)c1cc(F)ccc1F
24 | 0.25 (≈ 0.537 µM) | 4 (≈ 8.6 µM) | 0.5 (≈ 1.07 µM) | 0.25 (≈ 0.537 µM) | > 8 | 0.25 (≈ 0.537 µM) | 0.0625 (≈ 0.134 µM) | 0.5 (≈ 1.07 µM) | C[C@@H](c1cc(-c2ccc(Cl)c(Cl)c2)no1)[C@](O)(Cn1cncn1)c1ccc(F)cc1F
